From US6355799B1, “Substituted benzene compounds, process for their preparation, and herbicidal and defoliant compositions containing them” (ISK Americas Incorporated, priority 1997, dated 2002)

Legend:
Type in all cases: in vivo
[1] = tested on: redroot pigweed (Amaranthus retroflexus, AMARE); experiment: Pre-emerge test, greenhouse herbicide activity screening; conditions: pre-emerge, 14 days after application, scale 0-100
Summary of the method: (§1)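 Compounds in acetone were track-sprayed at 187 l/ha, 15–1000 g ai/ha, onto sandy loam pots. Pre-emerge seeds were sown one day before spraying, with surface watering afterwards. Post-emerge plants were at the 2–3 leaf stage and sprayed with 0.25% v/v non-ionic surfactant. Injury was rated 0–100 at 14 days.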

[2] = tested on: lambsquarters (Chenopodium album, CHEAL); experiment: as above; conditions: pre-emerge, 14 days after application, scale 0-100
Summary of the method: (§2)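 Sandy loam pots; pre-emerge: sown 1 d pre-spray, surface-watered after, then bottom-watered. Post-emerge: sown 8–21 d before, 2–3 leaf stage, + 0.25% v/v NIS, bottom-watered. Acetone, 187 l/ha track spray, 15–1000 g ai/ha. 0–100 injury score, day 14.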

[3] = tested on: johnsongrass (Sorghum halepense, SORHA); experiment: as above; conditions: pre-emerge, 14 days after application, scale 0-100
Summary of the method: as §2

[4] = tested on: velvetleaf (Abutilon theophrasti, ABUTH); experiment: as above; conditions: pre-emerge, 14 days after application, scale 0-100
Summary of the method: as §2

[5] = tested on: barnyardgrass (Echinochloa crus-galli, ECHCG); experiment: as above; conditions: pre-emerge, 14 days after application, scale 0-100
Summary of the method: as §2

[6] = tested on: sicklepod (Cassia obtusifolia, CASOB); experiment: as above; conditions: pre-emerge, 14 days after application, scale 0-100
Summary of the method: as §2

[7] = tested on: ivyleaf morningglory (Ipomoea hederacea, IPOHE); experiment: as above; conditions: pre-emerge, 14 days after application, scale 0-100
Summary of the method: as §2

[8] = tested on: green foxtail (Setaria viridis, SETVI); experiment: as above; conditions: pre-emerge, 14 days after application, scale 0-100
Summary of the method: as §2

[9] = tested on: large crabgrass (Digitaria sanguinalis, DIGSA); experiment: as above; conditions: pre-emerge, 14 days after application, scale 0-100
Summary of the method: as §2

[10] = tested on: field corn (Zea mays L., var. Dekalb 535, CORN); experiment: Pre-emerge test, crop safety; conditions: pre-emerge, 14 days after application, scale 0-100
Summary of the method: as §1

[11] = tested on: upland rice (Oryza sp., var. Tebonnet, RICE); experiment: Pre-emerge test, crop safety; conditions: pre-emerge, 14 days after application, scale 0-100
Summary of the method: as §1

[12] = tested on: field corn (Zea mays L., var. Dekalb 535, CORN); experiment: Post-emerge test, crop safety; conditions: post-emerge, 14 days after application, rating scale 0-100
Summary of the method: as §2

[13] = tested on: upland rice (Oryza sp., var. Tebonnet, RICE); experiment: Post-emerge test, crop safety; conditions: post-emerge, 14 days after application, rating scale 0-100
Summary of the method: as §2

[14] = tested on: lambsquarters (Chenopodium album, CHEAL); experiment: Post-emerge test, greenhouse herbicide activity screening; conditions: post-emerge, 14 days after application, rating scale 0-100
Summary of the method: (§3)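 Visual ratings on a 0-100 scale (0 no damage, 100 all plants dead) were taken at 14 days after treatment. Rates of 15-1000 g ai/ha in acetone, 187 l/ha, were sprayed onto soil one day after planting (pre-emerge) or onto 2-3 leaf plants with 0.25% v/v surfactant (post-emerge).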

[15] = tested on: johnsongrass (Sorghum halepense, SORHA); experiment: as above; conditions: post-emerge, 14 days after application, rating scale 0-100
Summary of the method: as §3

[16] = tested on: velvetleaf (Abutilon theophrasti, ABUTH); experiment: as above; conditions: post-emerge, 14 days after application, rating scale 0-100
Summary of the method: as §3

[17] = tested on: barnyardgrass (Echinochloa crus-galli, ECHCG); experiment: as above; conditions: post-emerge, 14 days after application, rating scale 0-100
Summary of the method: as §3

[18] = tested on: sicklepod (Cassia obtusifolia, CASOB); experiment: as above; conditions: post-emerge, 14 days after application, rating scale 0-100
Summary of the method: as §3

[19] = tested on: ivyleaf morningglory (Ipomoea hederacea, IPOHE); experiment: as above; conditions: post-emerge, 14 days after application, rating scale 0-100
Summary of the method: as §3

[20] = tested on: redroot pigweed (Amaranthus retroflexus, AMARE); experiment: as above; conditions: post-emerge, 14 days after application, rating scale 0-100
Summary of the method: as §3

[21] = tested on: green foxtail (Setaria viridis, SETVI); experiment: as above; conditions: post-emerge, 14 days after application, rating scale 0-100
Summary of the method: as §3

[22] = tested on: large crabgrass (Digitaria sanguinalis, DIGSA); experiment: as above; conditions: post-emerge, 14 days after application, rating scale 0-100
Summary of the method: as §3

`COc1c(Cl)cc(F)c(-n2c(=O)cc(C(F)(F)F)n(C)c2=O)c1NC(=O)c1cc2ccccc2cc1C` [2-155] was tested, and the “phytotoxicity rating AMARE” value ([1]; 63 g ai/ha) was 100, the “phytotoxicity rating AMARE” value ([1]; 125 g ai/ha) was 100 and the “phytotoxicity rating CHEAL” value ([2]; 63 g ai/ha) was 100. The “phytotoxicity rating CHEAL” value ([2]; 125 g ai/ha) was 100, the “phytotoxicity rating SORHA” value ([3]; 63 g ai/ha) was 30 and the “phytotoxicity rating SORHA” value ([3]; 125 g ai/ha) was 70. For the same compound, the “phytotoxicity rating ABUTH” value ([4]; 63 g ai/ha) was 100, the “phytotoxicity rating ABUTH” value ([4]; 125 g ai/ha) was 100 and the “phytotoxicity rating ECHCG” value ([5]; 63 g ai/ha) was 50. The “phytotoxicity rating ECHCG” value ([5]; 125 g ai/ha) was 70, the “phytotoxicity rating CASOB” value ([6]; 63 g ai/ha) was 0 and the “phytotoxicity rating CASOB” value ([6]; 125 g ai/ha) was 30. For the same compound, the “phytotoxicity rating IPOHE” value ([7]; 63 g ai/ha) was 0, the “phytotoxicity rating IPOHE” value ([7]; 125 g ai/ha) was 40 and the “phytotoxicity rating SETVI” value ([8]; 63 g ai/ha) was 60. The “phytotoxicity rating SETVI” value ([8]; 125 g ai/ha) was 95, the “phytotoxicity rating DIGSA” value ([9]; 63 g ai/ha) was 85 and the “phytotoxicity rating DIGSA” value ([9]; 125 g ai/ha) was 100. For the same compound, the “phytotoxicity rating CORN (crop damage)” value ([10]; 63 g ai/ha) was 0, the “phytotoxicity rating CORN (crop damage)” value ([10]; 125 g ai/ha) was 15 and the “phytotoxicity rating RICE (crop damage)” value ([11]; 63 g ai/ha) was 30. The “phytotoxicity rating RICE (crop damage)” value ([11]; 125 g ai/ha) was 60, the “CORN phytotoxicity rating (crop damage)” value ([12]; 63 g ai/ha) was 70 and the “CORN phytotoxicity rating (crop damage)” value ([12]; 125 g ai/ha) was 90. For the same compound, the “RICE phytotoxicity rating (crop damage)” value ([13]; 63 g ai/ha) was 25, the “RICE phytotoxicity rating (crop damage)” value ([13]; 125 g ai/ha) was 80 and the CHEAL phytotoxicity rating ([14]; 63 g ai/ha) was 100. It also gave a CHEAL phytotoxicity rating ([14]; 125 g ai/ha) of 100, an SORHA phytotoxicity rating ([15]; 63 g ai/ha) of 30 and an SORHA phytotoxicity rating ([15]; 125 g ai/ha) of 50. The ABUTH phytotoxicity rating ([16]; 63 g ai/ha) was 100, the ABUTH phytotoxicity rating ([16]; 125 g ai/ha) was 100 and the ECHCG phytotoxicity rating ([17]; 63 g ai/ha) was 30. For the same compound, the ECHCG phytotoxicity rating ([17]; 125 g ai/ha) was 60, the CASOB phytotoxicity rating ([18]; 63 g ai/ha) was 100 and the CASOB phytotoxicity rating ([18]; 125 g ai/ha) was 100. It also gave an IPOHE phytotoxicity rating ([19]; 63 g ai/ha) of 100, an IPOHE phytotoxicity rating ([19]; 125 g ai/ha) of 100 and an AMARE phytotoxicity rating ([20]; 63 g ai/ha) of 100. For the same compound, the AMARE phytotoxicity rating ([20]; 125 g ai/ha) was 100, the SETVI phytotoxicity rating ([21]; 63 g ai/ha) was 50 and the SETVI phytotoxicity rating ([21]; 125 g ai/ha) was 70. It also gave a DIGSA phytotoxicity rating ([22]; 63 g ai/ha) of 40 and a DIGSA phytotoxicity rating ([22]; 125 g ai/ha) of 50.
